Laboratory results published in PMC7329812 (Scientific Reports, 2020).
Like-named read-outs stand apart in the source and are kept apart here.

Columns and labels:
NaChBac = NaChBac (Halalkalibacterium halodurans (Bacillus halodurans), UniProt Q9KCR8); test: cell-based; type: cell-based; details: for inhibition at 7 µM: HEK293, read-out: inhibition of WT NaChBac peak currents
human NaV1.7 = human NaV1.7 (Homo sapiens, UniProt Q15858); test: cell-based; type: cell-based
F227A NaChBac = type: cell-based, Bacillus halodurans
F224A NaChBac = type: cell-based, Bacillus halodurans; details: for effect on F224A NaChBac channel currents: 7 µM

Chain of NaChBac (Q9KCR8 1-274): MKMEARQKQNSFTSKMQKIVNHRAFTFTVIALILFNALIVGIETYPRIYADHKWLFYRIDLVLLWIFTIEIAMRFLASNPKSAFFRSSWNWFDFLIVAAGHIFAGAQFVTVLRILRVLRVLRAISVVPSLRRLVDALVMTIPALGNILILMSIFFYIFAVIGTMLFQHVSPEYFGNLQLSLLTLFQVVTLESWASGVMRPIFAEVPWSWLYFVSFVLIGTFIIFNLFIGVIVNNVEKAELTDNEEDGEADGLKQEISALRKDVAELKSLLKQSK
Chain of human NaV1.7 (Q15858 whole entry): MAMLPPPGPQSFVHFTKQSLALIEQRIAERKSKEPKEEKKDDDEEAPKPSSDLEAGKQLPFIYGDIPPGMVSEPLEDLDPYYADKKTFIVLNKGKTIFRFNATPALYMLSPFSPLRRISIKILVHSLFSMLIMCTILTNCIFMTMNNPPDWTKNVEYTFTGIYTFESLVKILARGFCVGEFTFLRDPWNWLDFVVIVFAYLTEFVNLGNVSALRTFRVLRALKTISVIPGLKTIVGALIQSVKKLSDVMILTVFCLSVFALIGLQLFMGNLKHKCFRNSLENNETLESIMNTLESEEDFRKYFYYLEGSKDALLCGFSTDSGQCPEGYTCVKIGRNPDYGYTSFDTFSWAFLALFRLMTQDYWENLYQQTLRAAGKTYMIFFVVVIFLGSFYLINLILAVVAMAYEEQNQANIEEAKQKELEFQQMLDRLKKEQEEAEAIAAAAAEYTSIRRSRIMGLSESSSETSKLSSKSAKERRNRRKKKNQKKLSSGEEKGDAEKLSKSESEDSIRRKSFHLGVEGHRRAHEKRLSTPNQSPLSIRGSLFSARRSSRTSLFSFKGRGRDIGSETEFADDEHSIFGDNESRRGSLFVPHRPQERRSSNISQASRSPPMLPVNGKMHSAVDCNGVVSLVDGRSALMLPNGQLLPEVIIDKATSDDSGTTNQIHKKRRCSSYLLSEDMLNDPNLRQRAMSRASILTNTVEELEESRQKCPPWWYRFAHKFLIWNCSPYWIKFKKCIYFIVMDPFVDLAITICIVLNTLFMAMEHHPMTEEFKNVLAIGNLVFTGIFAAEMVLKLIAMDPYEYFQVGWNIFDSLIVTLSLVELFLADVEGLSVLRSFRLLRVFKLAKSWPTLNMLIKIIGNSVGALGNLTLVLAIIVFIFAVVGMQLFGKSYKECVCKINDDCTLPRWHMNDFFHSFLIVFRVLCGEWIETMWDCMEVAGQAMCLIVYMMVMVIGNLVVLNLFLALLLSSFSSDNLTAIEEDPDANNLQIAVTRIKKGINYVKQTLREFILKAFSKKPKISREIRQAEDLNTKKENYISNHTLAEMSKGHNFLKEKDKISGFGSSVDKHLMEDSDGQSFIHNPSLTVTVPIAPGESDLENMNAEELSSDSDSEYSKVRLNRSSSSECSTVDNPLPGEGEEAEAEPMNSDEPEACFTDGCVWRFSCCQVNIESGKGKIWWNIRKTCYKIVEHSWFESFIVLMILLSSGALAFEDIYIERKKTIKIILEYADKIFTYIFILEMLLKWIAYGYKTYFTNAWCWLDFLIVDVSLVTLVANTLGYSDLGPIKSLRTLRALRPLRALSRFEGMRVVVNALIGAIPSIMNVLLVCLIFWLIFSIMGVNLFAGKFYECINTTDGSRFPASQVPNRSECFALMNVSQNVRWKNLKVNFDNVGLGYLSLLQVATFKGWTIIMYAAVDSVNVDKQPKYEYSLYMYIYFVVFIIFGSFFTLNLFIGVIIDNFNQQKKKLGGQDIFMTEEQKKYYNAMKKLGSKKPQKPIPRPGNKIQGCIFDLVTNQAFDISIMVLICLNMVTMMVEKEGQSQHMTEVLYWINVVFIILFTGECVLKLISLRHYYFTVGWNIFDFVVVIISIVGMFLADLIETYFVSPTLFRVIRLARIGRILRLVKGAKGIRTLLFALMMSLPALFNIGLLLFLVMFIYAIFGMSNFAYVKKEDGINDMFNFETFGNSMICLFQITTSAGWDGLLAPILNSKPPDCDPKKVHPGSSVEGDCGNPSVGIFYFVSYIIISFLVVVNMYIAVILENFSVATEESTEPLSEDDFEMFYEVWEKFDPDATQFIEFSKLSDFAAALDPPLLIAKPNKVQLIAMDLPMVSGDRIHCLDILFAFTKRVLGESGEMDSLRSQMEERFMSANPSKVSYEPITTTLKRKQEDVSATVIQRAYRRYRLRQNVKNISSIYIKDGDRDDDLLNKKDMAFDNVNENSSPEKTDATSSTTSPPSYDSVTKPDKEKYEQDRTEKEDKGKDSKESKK

## Huwentoxin-IV
NaChBac
  % of block in NaChBac: -6.7±2.9%

## CCN(CC)CC(=O)Nc1c(C)cccc1C [Lidocaine]
Human NaV1.7
  G–V slope factor k[n], NaV1.7, after compound: 7.8 ± 0.2
F227A NaChBac
  lidocaine block of F227A NaChBac channels versus WT: no change in block
F224A NaChBac
  lidocaine block of F224A NaChBac channels versus WT: decreased but still robust block
NaChBac
  G–V slope factor k[n], NaChBac, after compound: 4.8 ± 0.4
NaChBac; hek 293 cells
  % of block in NaChBac: 74.1±2.3%

## QX-222
NaChBac
  % of block in NaChBac: 15.3±2.7%

## COc1cc(NC(=O)c2ccc(-c3ccc(Cl)cc3)o2)cc(OC)c1 [A-803467]
NaChBac
  % of block in NaChBac: -6.3±4.1%
  effect on NaChBac channel currents: no effects

## GSMTx-4
NaChBac
  % of block in NaChBac: -5.1±3.0%

## Cc1cccc(C)c1NC(=O)CC12CCCN1CCC2 [Pilsicaineide]
NaChBac
  % of block in NaChBac: 50.5±2.7%

## ProTx-II
NaChBac
  % of block in NaChBac: 7.7±3.3%
  effect on NaChBac channel currents: no effect

## Cc1cccc(C)c1NC(=O)C1CCCCN1C (stereo not shown) [Mepivacaine]
NaChBac; hek 293 cells
  % of block in NaChBac: 67.7±2.5%

## COc1ccccc1OCC(O)CN1CCN(CC(=O)Nc2c(C)cccc2C)CC1 (stereo not shown) [Ranolazine]
NaChBac; hek 293 cells
  % of block in NaChBac: 42.5±4.3%

## Cc1ccc(C(=O)C(C)CN2CCCCC2)cc1 (stereo not shown) [Tolperisone]
NaChBac; hek 293 cells
  % of block in NaChBac: 86.2±2.5%

## NC1=N[C@H](O)[C@H]2[C@H]3O[C@]4(O)O[C@@H]([C@@H](O)[C@@]2(N1)[C@@H]4O)[C@]3(O)CO [ttx, tetrodotoxin]
NaChBac
  % of block in NaChBac: 0.5±3.6%
  effect on NaChBac channel currents: did not significantly alter currents

## NC(=O)N1c2ccccc2CC(=O)c2ccccc21 [oxcarbazepine]
NaChBac; hek 293 cells
  % of block in NaChBac: 18.2±2.5%

## Cc1cccc(C)c1OCC(C)N (stereo not shown) [Mexiletine]
NaChBac; hek 293 cells
  % of block in NaChBac: 74.2±1.8%

## COc1ccc(C(=O)O[C@H]2CC[C@@]3(C)[C@@H]4CC[C@H]5[C@]6(O)C[C@H](O)[C@@]7(O)[C@@H](CN8C[C@@H](C)CC[C@H]8[C@@]7(C)O)[C@]6(O)C[C@@]53O[C@]24O)cc1OC [Veratridine]
F227A NaChBac; 7 µM
  inhibition of F227A NaChBac peak currents: 65.1 ± 1.7%
  ΔV1/2 of G–V curve, F227A NaChBac: 20.1 ± 2.3 mV
F224A NaChBac
  effect on F224A NaChBac channel currents: minimal or no block
NaChBac
  G–V slope factor k[n], NaChBac, after compound: 10.3 ± 0.3
  Hill slope, NaChBac dose-response: 0.3
  effect on NaChBac channel currents: significantly blocked peak inward Na^+ current
NaChBac; 7 µM
  ΔV1/2 of G–V curve, WT NaChBac: 7.7 ± 1.8 mV
  inhibition at 7 µM: 55.6 ± 2%
NaChBac; hek 293 cells
  % of block in NaChBac: 65.6±3.2%
NaChBac; read-out: IC50 for NaChBac
  IC50: 8.1 µM

## CCN1C[C@]2(COC)[C@H](O)C[C@H](OC)[C@@]34[C@@H]5C[C@@]6(O)[C@H](OC(=O)c7ccccc7)[C@@H]5[C@@](OC(C)=O)([C@@H]([C@H](OC)[C@H]23)[C@@H]14)[C@@H](O)[C@@H]6OC [Aconitine]
Human NaV1.7
  G–V slope factor k[n], NaV1.7, after compound: 6.7 ± 0.2
  Hill slope, NaV1.7 dose-response: 1.6
  IC50: 7.4 µM
Human NaV1.7; 7 µM
  block of NaV1.7 channel: ~ 50%
F227A NaChBac; 7 µM
  effect on F227A NaChBac channel currents: reduced effect
F224A NaChBac
  effect on F224A NaChBac channel currents: no effect
NaChBac
  G–V slope factor k[n], NaChBac, after compound: 5.0 ± 0.2
  Hill slope, NaChBac dose-response: 1.0
  IC50: 1.3 µM
  effect on NaChBac channel currents: significantly blocked peak inward Na^+ current
NaChBac; 2 µM
  block of NaChBac channel: ~ 50%
NaChBac; 7 µM
  inhibition at 7 µM: ~80%

## CC[N+](CC)(CC)CC(=O)Nc1c(C)cccc1C [QX-314]
NaChBac; hek 293 cells
  % of block in NaChBac: 16.2±2.6%

## COc1ccc(CCN(C)CCCOc2nsc(-c3ccccc3)n2)cc1OC [kc12291]
NaChBac; hek 293 cells
  % of block in NaChBac: 76.3±1.1%

## CCCCN1CCCCC1C(=O)Nc1c(C)cccc1C (stereo not shown) [Bupivacaine]
NaChBac; hek 293 cells
  % of block in NaChBac: 46.6±2.9%

## ProTx-I
NaChBac
  % of block in NaChBac: -2.0±3.0%

## Nc1c(Br)cc(Br)cc1CN[C@H]1CC[C@H](O)CC1 [Ambroxol]
Human NaV1.7
  G–V slope factor k[n], NaV1.7, after compound: 6.7 ± 0.2
  effect on NaV1.7 channel currents: robust inhibition
NaChBac
  G–V slope factor k[n], NaChBac, after compound: 5.7 ± 0.6
  effect on NaChBac channel currents: robust inhibition
NaChBac; hek 293 cells
  % of block in NaChBac: 93.6±3.8%

## C[C@H](NCc1ccc(OCc2ccccc2F)cc1)C(N)=O [Ralfinamide]
NaChBac; hek 293 cells
  % of block in NaChBac: 97.7±3.0%
